We go through eight compounds from patent US20250389737A1, “FACTOR Xa REAGENT” (Instrumentation Laboratory Company, priority 2024, published 2025).

Where a name gives a salt, the structure may show the parent alone.

The target of assay [1] is T1, factor Xa (Homo sapiens, UniProt P00742). As to conditions: 6 nkat/mL factor Xa in 20 mM Hepes pH 7.5, 1.5 mM substrate S-2732, 37° C., mAbs/min at 405 nm, concentrations in mM.
Description: In this experiment, activity of factor Xa in the presence of guanidine sulfate and its derivatives (e.g., 1-methylguanidine sulfate, 1,1-dimethylguanidine sulfate, 1,1-diethylguanidine, N-benzyl, N-methylguanidine sulfate, 1,1,3,3-tetramethylgunidine and 1,1-dimethylbiguanide HCl) was evaluated using a chromogenic assay. In the experiment, each guanidine derivative was dissolved in deionized (DI) water to a final concentration of 100 mM. A number of such guanidine dilutions were prepared. Guanidine derivative levels in the solutions were tested in triplicate at 37° C. as follows: 40 μL (microliters) of each guanidine derivative level was incubated for 20 seconds(s) to 60 s before 40 μL of 6 nkat/mL factor Xa in 20 mM Hepes pH 7.5 buffer was added to the reaction. After an incubation period of 150 s to 180 s, 100 μL of 1.5 mM factor Xa chromogenic substrate S-2732™ was added to the reaction and milli-absorbance per minute (mAbs/min) at 405 nm (nanometers) was measured after a 20 s delay.
Assay [2] addresses T1, factor Xa. Briefly: chromogenic assay of the effects of guanidine sulfate and alkylated guanidines on factor Xa activity (FIG. 4). Type of assay: biochemical. As to conditions: 6 nkat/mL factor Xa in 20 mM HEPES pH 7.5, 1.5 mM substrate S-2732, mAbs/min at 405 nm, dilution series in water. The procedure:
In this experiment, the effects of guanidine sulfate and the guanidine derivatives: 1-methylguanidine sulfate, 1,1-dimethylguanidine sulfate, 1,1-diethylguanidine, and N-benzyl, N-methylguanidine sulfate were analyzed using a chromogenic assay. A number of dilutions were prepared in water with guanidine or a guanidine derivative of the type described herein. 40 μL of each of the guanidine or guanidine derivatives were mixed for 20 s to 60 s with 40 μL of 6 nkat/mL factor Xa diluted in 20 mM HEPES, pH 7.5 buffer. After an incubation period of 150 s to 180 s, 100 μL of the factor Xa chromogenic substrate S-2732™ (1.5 mM) was added to each of the guanidine and factor Xa mixtures and each mixture was chromogenically measured at 405 nm mAbs/min after a 20 s delay.

For assay [3], the target named is T1, factor Xa. In words: substrate turnover rates at different factor Xa levels, 1,1-dimethylguanidine compared with NaCl (FIG. 6). Type of assay: biochemical. As to conditions: 22 mM 1,1-dimethylguanidine vs 33 mM NaCl, 1.5 mM S-2732, 37° C., 405 nm. As for the experimental part:
Guanidine derivatives modulate factor Xa enzymatic activity in a reaction, as explained previously, thereby slowing-down the reaction. As a result, greater amounts and/or concentrations of factor Xa can be used in a reaction when a guanidine derivative is incorporated into the reaction. In this experiment, factor Xa levels were tested in a reaction in triplicate at 37° C. as follows: 40 μL of factor Xa was incubated for 20 s to 60 s before 40 μL of 100 mM 1,1-dimethylguanidine or 150 mM NaCl in water was added to the reaction. After an incubation period of 150 s to 180 s, 100 μL of 1.5 mM factor Xa chromogenic substrate S-2732™ was added to the reaction and mAbs/min at 405 nm was measured after a 20 s delay. In FIG. 6, substrate turnover rates (e.g., coloring of the substrate) in the presence of 22 mM 1,1-dimethylguanidine 601 were compared to substrate turnover rates in the presence of 33 mM NaCl 602. As evident from FIG. 6, greater amounts and/or concentrations of factor Xa can be added to the reaction in the presence of 1,1-dimethylguanidine to produce the same substrate turnover rates relative to NaCl. […] Greater amounts and/or concentrations of factor Xa facilitate detection of factor Xa inhibitors or reversal of such inhibitors in an assay, as noted previously.

Assay [4] concerns the target T1, factor Xa. In words: chromogenic factor Xa activity in a plasma sample containing dimethylguanidine, 9:1 sample to factor Xa ratio (FIG. 7). Type of assay: biochemical. As to conditions: 50 mM vs 25 mM dimethylguanidine, 1.5 mM S-2732, 37° C. The procedure:
In this experiment, 180 μL of a plasma sample containing dimethylguanidine (DMG) and 1.5 mM substrate S-2732™ were mixed with 20 μL of factor Xa (a 9:1 sample to factor Xa ratio). The activity of factor Xa was determined at 37° C. based on chromogenic activity of the substrate. The activity of factor Xa linearly correlates with the factor Xa concentration in the presence of dimethylguanidine. […] Thus, increasing the amount of dimethylguanidine in a sample reduces a rate of the reaction. In some implementations, dimethylguanidine can be added to a reaction at a concentration of up to about 500 mM.

T1 sequence (P00742 235-488 limits assumed): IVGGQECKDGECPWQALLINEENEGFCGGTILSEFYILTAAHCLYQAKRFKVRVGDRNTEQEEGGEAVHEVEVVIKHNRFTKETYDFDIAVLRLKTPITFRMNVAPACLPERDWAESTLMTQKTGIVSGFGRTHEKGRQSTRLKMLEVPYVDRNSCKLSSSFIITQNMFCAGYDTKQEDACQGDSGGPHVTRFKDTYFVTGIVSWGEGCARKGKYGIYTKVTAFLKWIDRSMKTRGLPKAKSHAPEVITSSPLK
T1 sequence (P00742 41-179 partner limits assumed): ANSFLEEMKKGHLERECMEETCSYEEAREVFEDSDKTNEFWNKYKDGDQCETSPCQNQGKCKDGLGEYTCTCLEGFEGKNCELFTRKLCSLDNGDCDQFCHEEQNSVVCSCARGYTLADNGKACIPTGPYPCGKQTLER

In the case of `[Cl-].[Na+]` [NaCl, reference compound], the “factor Xa activity plotted against guanidine derivative or NaCl concentration” value (“factor Xa activity plotted” below) at factor Xa [1] is reported as “activates factor Xa activity”.

Take `CN(C)C(=N)N.O=S(=O)(O)O` [1,1-dimethylguanidine sulfate]: the “extent of factor Xa inhibition” value on factor Xa [2] was “largest extent of factor Xa inhibition”.

In the case of `CN(Cc1ccccc1)C(=N)N.O=S(=O)(O)O` [N-benzyl N-methylguanidine sulfate], at factor Xa [2], the “extent of factor Xa inhibition” value was “reduced factor Xa inhibition as compared to the factor Xa inhibition of mixtures containing dialkylated guanidine derivatives”.

Consider `CN(C)C(=N)NC(=N)N` [1,1-dimethyl-biguanide, reference compound], for which the “factor Xa activity plotted” value at factor Xa [1] is “modulate factor Xa dose-dependently, although less than 1-methylated guanidine sulfate”.

Turning to `N=C(N)N` [guanidine sulfate], the “extent of factor Xa inhibition” value on factor Xa [2] is given as “least amount of reduction in factor Xa inhibition”. In addition, the “factor Xa activity plotted” value on factor Xa [1] is given as “modulate factor Xa dose-dependently, although less than 1-methylated guanidine sulfate”.

As to `CN(C)C(=N)N` [1,1-dimethylguanidine], the “substrate turnover rates (reaction rate) relative to NaCl” value at factor Xa [3] is “slowed-down”. At factor Xa [4], the “rate of the factor Xa reaction (chromogenic activity)” value is “slows reaction of the factor Xa in a sample greater than 25 mM of dimethylguanidine”.

For `CCN(CC)C(=N)N.O=S(=O)(O)O` [1,1-diethylguanidine sulfate], on factor Xa [2], the “extent of factor Xa inhibition” value is given as “largest extent of factor Xa inhibition”.

Turning to `CNC(=N)N` [1-methylguanidine sulfate], the “extent of factor Xa inhibition” value on factor Xa [2] is recorded as “reduced factor Xa inhibition as compared to the factor Xa inhibition of mixtures containing dialkylated guanidine derivatives”. The “factor Xa activity plotted” value at factor Xa [1] was “modulates factor Xa dose-dependently”.
